Reference: US5691361A, “1,4-dihydropyridine derivatives, a process for their preparation and their use for influencing the blood flow” (priority 1995, dated 1997)
pEC50, pIC50: −log10 of the molar value.

Tests used:
rabbit aorta strips = assay: Vasoconstrictory effect in rabbit aorta strips at low depolarizing conditions (10 mM K+); format: cell-based; details: Oryctolagus cuniculus; rabbit aorta strips predepolarized with 10 mM K+
Description: The vasoconstrictory effects are measured at low depolarizing conditions in rabbit aorta strips. 10 mM K^+ is used to obtain a low starting concentration. Subsequently, increasing concentrations of the test compound are added in order to achieve an increase in contraction.
The EC50 (negative logarithm of the molar concentration required to increase the calcium induced contraction of low K^+ depolarized rabbit aorta by 50%) is analysed by interpolation of the corresponding concentration-response curves (table 4).

rabbit aorta = assay: Vasodilatory effect: inhibition of calcium-induced contraction of K+-depolarized isolated rabbit aorta strips; format: cell-based, white New Zealand rabbits; details: Oryctolagus cuniculus
Description: (§1) The vasodilatory effects are tested as follows: an isolated aorta of the thorax of white New Zealand rabbits is secured in an organ bath. The contractile activity of the helical throacic aorta strip is recorded after depolarization with Krebs solution without calcium (35 mM, potassium) and addition of external calcium pulses (1.5 mM). The compounds are added in increasing concentrations before calcium is reintroduced.

[1] = tested on: left stimulated rabbit atrium / rabbit aorta; assay: Tissue selectivity: ratio of IC50 in left stimulated isolated rabbit atrium to IC50 in K+-depolarized rabbit aorta; format: cell-based; details: ratio of IC50 in left stimulated rabbit atrium and IC50 in rabbit aorta
Description: as §1
The electrical stimulation is fixed at 1 Hz. After one hour equilibration the percentage contraction is set at 100%, increased concentrations of the compounds are added to the bath every 15 minutes and the changes in the contractile force are recorded. The IC50 values are calculated by interpolation from the concentration-effect relationship determined in each of the experiments.

[2] = tested on: spontaneously hypertensive rats (SHR); assay: Antihypertensive activity in spontaneously hypertensive rats (systolic blood pressure, tail plethysmography); format: in vivo, spontaneously hypertensive rats (SHR) of Okamoto strain; details: Rattus norvegicus, single oral dose 20 mg/kg, 2 hours after treatment
Description: The antihypertensive activity of the compounds of the invention is tested in spontaneously hypertensive rats (SHR) of Okamoto strain. Systolic blood pressure is monitored by tail plethysmography. The animals are trained for two weeks for the monitoring process. On the day of the experiment the rats are placed in an oven for two hours at 31°±1° C. and blood pressure is recorded graphically. The measurement recorded is the average of five measurements taken in each case. Only animals with basic values of systolic blood pressure over 170 mm Hg are considered hypertensive. After 24 hours fasting the compound to be tested (20 mg/kg) and/or a carrier (20% PEG 400 in 0.5% aqueous methyl cellulose (10 ml/kg)) is orally administered to the selected hypertensive animals by means of a gastric cannula. The values are expressed in percentage variation 2 hours after treatment.

In the case of COC(=O)C1=C(C)NC(C)=C([N+](=O)[O-])C1c1ccccc1C(F)(F)F (stereo not shown) [BayK-8644, 2,6-dimethyl-3-nitro-4-(2-trifluoromethylphenyl)-1,4-dihydropyridine-5-carboxylic acid methylester, reference compound], the pEC50 (rabbit aorta strips) was 7.89.
For CC1=C(C(=O)OCCN2C(=O)c3ccccc3S2(=O)=O)C(c2cccc([N+](=O)[O-])c2)C(C(=O)OC(C)C)=C(C)N1 (stereo not shown) [Example 3, 2,6-Dimethyl-5-isopropoxycarbonyl-4-(3-nitrophenyl)-1,4-dihydropyridine-3-carboxylic acid-2-[N-(1,2-benzisothiazolyl-3(2H)one-1,1-dioxide)]-ethylester], the pIC50 (rabbit aorta) was 9.57, the “Selectivity index (Atrium/Aorta)” value [1] was 137 and the change in vivo at 20 mg/kg [2] was 19.7%.
For CC1=C(C(=O)OCCN2C(=O)c3ccccc3S2(=O)=O)C(c2cccc(Cl)c2Cl)C(C(=O)OC(C)C)=C(C)N1 (stereo not shown) [Example 16, 4-(2,3-Dichlorophenyl)-2,6-dimethyl-5-isopropoxycarbonyl-1,4-dihydropyridine-3-carboxyic acid-2-[N-(1,2-benzisothiazolyl-3(2H)one-1,1-dioxide)]-ethylester], the pIC50 (rabbit aorta) was 9.60, the “Selectivity index (Atrium/Aorta)” value [1] was 2744 and the change in vivo at 20 mg/kg [2] was 7.45%.
With CCOC(=O)C1=C(C)NC(C)=C(C(=O)OCCN2C(=O)c3ccccc3S2(=O)=O)C1c1ccccc1C(F)(F)F (stereo not shown) [Example 17, 2,6-Dimethyl-5-ethoxycarbonyl-4-(2-trifluoromethylphenyl)-1,4-dihydropyridine-3-carboxylic acid-2-[N-(1,2-benzisothiazolyl-3(2H)one-1,1-dioxide)]-ethylester] the pIC50 (rabbit aorta) was 9.31, the “Selectivity index (Atrium/Aorta)” value [1] was 152 and the change in vivo at 20 mg/kg [2] was 27.3%.
In the case of CC1=C(C(=O)OCCN2C(=O)c3ccccc3S2(=O)=O)C(c2ccccc2C(F)(F)F)C(C(=O)OC(C)C)=C(C)N1 (stereo not shown) [Example 18, 2,6-Dimethyl-5-isopropoxycarbonyl-4-(2-trifluoromethylphenyl)-1,4-dihydropyridine-3-carboxylic acid-2-[N-(1,2-benzisothiazolyl-3(2H)one-1,1-dioxide)]-ethylester], the pIC50 (rabbit aorta) was 9.01, the “Selectivity index (Atrium/Aorta)” value [1] was 103 and the change in vivo at 20 mg/kg [2] was 37.1%.
For CC1=C(C(=O)OCCCN2C(=O)c3ccccc3S2(=O)=O)C(c2cccc([N+](=O)[O-])c2)C(C(=O)OC(C)C)=C(C)N1 (stereo not shown) [Example 25, 2,6-Dimethyl-5-isopropoxycarbonyl-4-(3-nitrophenyl)-1,4-dihydropyridine-3-carboxylic acid-3-[N-(1,2-benzisothiazolyl-3(2H)one-1,1-dioxide)]-propylester], the pIC50 (rabbit aorta) was 8.99, the “Selectivity index (Atrium/Aorta)” value [1] was 205 and the change in vivo at 20 mg/kg [2] was -1.01%.
COC(=O)C1=C(C)NC(C)=C(C(=O)OCCCN2C(=O)c3ccccc3S2(=O)=O)C1c1cccc(Cl)c1Cl (stereo not shown) [Example 29, 4-(2,3-Dichlorophenyl)-2,6-dimethyl-5-methoxycarbonyl-1,4-dihydropyridine-3-carboxylic acid-3-[N-(1,2-benzisothiazolyl-3(2H)one-1,1-dioxide)]-propylester] was tested, and the pIC50 (rabbit aorta) was 9.12, the “Selectivity index (Atrium/Aorta)” value [1] was 686 and the change in vivo at 20 mg/kg [2] was 35%.
With COC(=O)C1=C(C)NC(C)=C(C(=O)OCCCN2C(=O)c3ccccc3S2(=O)=O)C1c1ccccc1Cl (stereo not shown) [Example 34, 4-(2-Chlorophenyl)-2,6-dimethyl-5-methoxycarbonyl-1,4-dihydropyridine-3-carboxylic acid-3-[N-(1,2-benzisothiazolyl-3(2H)one-1,1-dioxide)]-propylester] the pIC50 (rabbit aorta) was 8.74, the “Selectivity index (Atrium/Aorta)” value [1] was 77 and the change in vivo at 20 mg/kg [2] was 11.1%.
With COC(=O)C1=C(C)NC(C)=C(C(=O)OCCCN2C(=O)c3ccccc3S2(=O)=O)C1c1ccccc1[N+](=O)[O-] (stereo not shown) [Example 37, 2,6-Dimethyl-5-methoxycarbonyl-4-(2-nitrophenyl)-1,4-dihydropyridine-3-carboxylic acid-3-[N-(1,2-benzisothiazolyl-3(2H)one-1,1-dioxide)]-propylester] the pIC50 (rabbit aorta) was 8.82, the “Selectivity index (Atrium/Aorta)” value [1] was 80 and the change in vivo at 20 mg/kg [2] was 6.83%.
With CC1=C(C(=O)OCCCN2C(=O)c3ccccc3S2(=O)=O)C(c2ccccc2[N+](=O)[O-])C(C(=O)OC(C)C)=C(C)N1 (stereo not shown) [Example 39, 2,6-Dimethyl-5-isopropoxycarbonyl-4-(2-nitrophenyl)-1,4-dihydropyridine-3-carboxylic acid-3-[N-(1,2-benzisothiazolyl-3(2H)one-1,1-dioxide)]-propylester] the pIC50 (rabbit aorta) was 8.91, the “Selectivity index (Atrium/Aorta)” value [1] was 15 and the change in vivo at 20 mg/kg [2] was 3.61%.
For CCOC(=O)C1=C(C)NC(C)=C(C(=O)OCCCN2C(=O)c3ccccc3S2(=O)=O)C1c1cccc(Cl)c1Cl (stereo not shown) [Example 40, 4-(2,3-Dichlorophenyl)-2,6-dimethyl-5-ethoxycarbonyl-1,4-dihydropyridine-3-carboxylic acid-3-[N-(1,2-benzisothiazolyl-3(2H)one-1,1-dioxide)]-propylester], the pIC50 (rabbit aorta) was 8.75, the “Selectivity index (Atrium/Aorta)” value [1] was 200 and the change in vivo at 20 mg/kg [2] was 35.5%.
With CC1=C(C(=O)OCCCN2C(=O)c3ccccc3S2(=O)=O)C(c2cccc(Cl)c2Cl)C(C(=O)OC(C)C)=C(C)N1 (stereo not shown) [Example 42, 4-(2,3-Dichlorophenyl)-2,6-dimethyl-5-isopropoxycarbonyl-1,4-dihydropyridine-3-carboxylic acid-3-[N-(1,2-benzisothiazolyl-3(2H)one-1,1-dioxide)]-propylester] the pIC50 (rabbit aorta) was 8.68, the “Selectivity index (Atrium/Aorta)” value [1] was 75 and the change in vivo at 20 mg/kg [2] was 10.5%.
For CCOC(=O)C1=C(C)NC(C)=C(C(=O)OCCCN2C(=O)c3ccccc3S2(=O)=O)C1c1ccccc1C(F)(F)F (stereo not shown) [Example 43, 2,6-Dimethyl-5-ethoxycarbonyl-4-(2-trifluoromethylphenyl)-1,4-dihydropyridine-3-carboxylic acid-3-[N-(1,2-benzisothiazolyl-3(2H)one-1,1-dioxide)]-propylester], the pIC50 (rabbit aorta) was 9.12, the “Selectivity index (Atrium/Aorta)” value [1] was 163 and the change in vivo at 20 mg/kg [2] was 18.6%.
For COCCOC(=O)C1=C(C)NC(C)=C(C(=O)OCCCN2C(=O)c3ccccc3S2(=O)=O)C1c1ccccc1C(F)(F)F (stereo not shown) [Example 45, 2,6-Dimethyl-5-(2-methoxyethoxycarbonyl)-4-(2-trifluoromethylphenyl)-1,4-dihydropyridine-3-carboxylic acid-3-[N-(1,2-benzisothiazolyl-3(2H)one-1,1-dioxide)]-propylester], the pIC50 (rabbit aorta) was 8.86, the “Selectivity index (Atrium/Aorta)” value [1] was 16 and the change in vivo at 20 mg/kg [2] was 11%.
With CC1=C(C(=O)OCCN2C(=O)c3ccccc3S2(=O)=O)C(c2cccc([N+](=O)[O-])c2)C(C(=O)OC(C)(C)C)=C(C)N1 (stereo not shown) [Example 51] the pIC50 (rabbit aorta) was 8.80, the “Selectivity index (Atrium/Aorta)” value [1] was 72 and the change in vivo at 20 mg/kg [2] was 24.6%.
CC1=C(C(=O)OCCCN2C(=O)c3ccccc3S2(=O)=O)C(c2ccccc2Cl)C(C(=O)OC(C)C)=C(C)N1 (stereo not shown) [Example 52, 4-(2-Chlorophenyl)-2,6-dimethyl-5-isopropoxycarbonyl-1,4-dihydropyridine-3-carboxylic acid-3-[N-(1,2-benzisothiazolyl-3(2H)one-1,1-dioxide)]-propylester] was tested, and the pIC50 (rabbit aorta) was 8.89, the “Selectivity index (Atrium/Aorta)” value [1] was 37 and the change in vivo at 20 mg/kg [2] was 19.4%.
In the case of CC1=C(C(=O)OCCN2C(=O)c3ccccc3S2(=O)=O)C(c2ccccc2[N+](=O)[O-])C(C(=O)OC(C)(C)C)=C(C)N1 (stereo not shown) [Example 54, 5-Tert.-butoxycarbonyl-2,6-dimethyl-4-(2-nitrophenyl)-1,4-dihydropyridine-3-carboxylic acid-2-[N-(1,2-benzisothiazolyl-3(2H)one-1,1-dioxide)]-ethylester], the pIC50 (rabbit aorta) was 9.15, the “Selectivity index (Atrium/Aorta)” value [1] was 41 and the change in vivo at 20 mg/kg [2] was 23.4%.
For CC1=C(C(=O)OCCN2C(=O)c3ccccc3S2(=O)=O)C(c2cccc(Cl)c2Cl)C(C(=O)OC(C)(C)C)=C(C)N1 (stereo not shown) [Example 55, 5-Tert.-butoxycarbonyl-4-(2,3-dichlorophenyl)-2,6-dimethyl-1,4-dihydropyridine-3-carboxylic acid-2-[N-(1,2-benzisothiazolyl-3(2H)one-1,1-dioxide)]-ethylester], the pIC50 (rabbit aorta) was 8.64, the “Selectivity index (Atrium/Aorta)” value [1] was 122 and the change in vivo at 20 mg/kg [2] was 35.8%.
In the case of COC(=O)C1=C(C)NC(C)=C(C(=O)OC)C1c1ccccc1[N+](=O)[O-] [nifedipine, 2,6-dimethyl-4-(2-nitrophenyl)-1,4-dihydropyridine-3,5-dicarboxylic acid 3,5-dimethylester, reference compound], the pIC50 (rabbit aorta) was 8.54, the “Selectivity index (Atrium/Aorta)” value [1] was 39 and the change in vivo at 20 mg/kg [2] was 35.4%.
